Data published in ChEMBL document CHEMBL5696443 (Clin Cancer Res, 2016).
The source made the active and inactive calls. No cut-off for these calls is given here.

Legend:
[1] = biological target: RAC-beta serine/threonine-protein kinase (Homo sapiens) (UniProt P31751); assay: Inhibition of human AKT2 at 1 uM using KGSGSGRPRTSSFAEG as substrate in presence of [gamma33P]-ATP by HotSpot assay relative to control
[2] = biological target: Calcium/calmodulin-dependent protein kinase type II subunit beta (Homo sapiens) (UniProt Q13554); assay: Inhibition of human CAMK2b at 1 uM using KKALRRQETVDAL as substrate in presence of [gamma33P]-ATP by HotSpot assay relative to control
[3] = biological target: Calcium/calmodulin-dependent protein kinase type II subunit gamma (Homo sapiens, UniProt Q13555); assay: Inhibition of human CAMK2G using KKLNRTLSFAEPG as substrate in presence of [gamma33P]-ATP by HotSpot assay
[4] = biological target: Serine/threonine-protein kinase Chk2 (Homo sapiens, UniProt O96017, I157T); assay: Inhibition of human CHEK2 I157T mutant using KKKVSRSGLYRSPSMPENLNRPR as substrate in presence of [gamma33P]-ATP by HotSpot assay
[5] = tested on: Epidermal growth factor receptor (Homo sapiens), P00533 [L858R]; settings: BaF3, time 72.0 hrs
Epidermal growth factor receptor (Homo sapiens), P00533 [L858R], sequence (P00533 whole entry L858R): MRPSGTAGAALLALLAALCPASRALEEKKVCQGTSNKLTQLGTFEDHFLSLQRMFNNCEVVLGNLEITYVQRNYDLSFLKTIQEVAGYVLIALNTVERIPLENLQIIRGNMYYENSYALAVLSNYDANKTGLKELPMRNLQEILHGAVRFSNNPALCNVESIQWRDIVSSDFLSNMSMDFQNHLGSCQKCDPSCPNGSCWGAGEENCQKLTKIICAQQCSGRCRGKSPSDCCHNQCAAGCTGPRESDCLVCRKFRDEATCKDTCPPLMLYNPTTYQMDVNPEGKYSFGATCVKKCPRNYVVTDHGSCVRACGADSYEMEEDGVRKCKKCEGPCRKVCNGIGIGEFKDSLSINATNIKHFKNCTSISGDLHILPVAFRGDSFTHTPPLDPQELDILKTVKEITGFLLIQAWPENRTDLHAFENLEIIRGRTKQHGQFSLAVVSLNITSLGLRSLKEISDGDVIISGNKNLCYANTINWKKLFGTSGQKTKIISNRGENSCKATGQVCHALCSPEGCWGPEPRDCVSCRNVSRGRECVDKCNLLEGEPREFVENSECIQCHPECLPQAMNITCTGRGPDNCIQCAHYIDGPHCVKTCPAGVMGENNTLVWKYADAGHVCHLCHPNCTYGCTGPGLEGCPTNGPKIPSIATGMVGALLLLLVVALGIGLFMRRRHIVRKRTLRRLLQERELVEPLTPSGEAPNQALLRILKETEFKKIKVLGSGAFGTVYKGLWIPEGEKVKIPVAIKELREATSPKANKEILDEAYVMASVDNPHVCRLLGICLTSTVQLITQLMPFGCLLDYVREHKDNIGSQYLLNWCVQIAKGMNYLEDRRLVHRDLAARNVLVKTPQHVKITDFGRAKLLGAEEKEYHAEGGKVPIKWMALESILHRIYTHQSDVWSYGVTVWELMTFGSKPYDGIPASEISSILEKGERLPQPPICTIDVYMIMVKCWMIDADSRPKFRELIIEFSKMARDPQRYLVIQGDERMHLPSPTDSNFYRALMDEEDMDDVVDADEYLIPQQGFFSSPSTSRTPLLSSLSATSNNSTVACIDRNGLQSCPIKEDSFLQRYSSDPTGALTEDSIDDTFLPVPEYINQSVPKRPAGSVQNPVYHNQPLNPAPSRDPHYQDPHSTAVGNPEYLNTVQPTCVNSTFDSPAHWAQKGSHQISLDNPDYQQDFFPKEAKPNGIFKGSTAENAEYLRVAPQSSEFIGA

[6] = biological target: Mitogen-activated protein kinase kinase kinase 20 (Homo sapiens) (UniProt Q9NYL2); assay: Inhibition of human ZAK at 1 uM using MBP as substrate in presence of [gamma33P]-ATP by HotSpot assay relative to control
NCI-H2228 = assay: Antitumor activity against ALK positive human NCI-H2228 cells xenografted in CB-17/SCID orthotopic brain tumor mouse model assessed as reduction in tumor burden in brain at 50 mg/kg, po administered daily and measured after 64 days by H&E staining based analysis; assay type: functional, organism-based; settings: time 64.0 day
[7] = biological target: Serine/threonine-protein kinase PAK 2 (Homo sapiens) (UniProt Q13177); assay: Inhibition of human PAK2 at 1 uM using RRRLSFAEPG as substrate in presence of [gamma33P]-ATP by HotSpot assay relative to control
[8] = biological target: Serine/threonine-protein kinase 10 (Homo sapiens, UniProt O94804); assay: Inhibition of human STK10 using RLGRDKYKTLRQIRQ as substrate in presence of [gamma33P]-ATP by HotSpot assay
cells = settings: Homo sapiens, BaF3, 72 h
[9] = tested on: EML4-ALK (Homo sapiens), Q9UM73+Q9HC35 [L1198F]; settings: BaF3, dose 500.0 nmol/L, time 3-5 weeks
Insulin receptor = Insulin receptor (Homo sapiens, UniProt P06213)
Description: Inhibition of INSR phosphorylation in insulin-stimulated human H4-II-E cells preincubated with compound for 30 mins followed by insulin stimulation and measured after 10 mins by immunoblot analysis

[10] = biological target: Death-associated protein kinase 3 (Homo sapiens) (UniProt O43293); assay: Inhibition of human DAPK3 at 1 uM using KKLNRTLSFAEPG as substrate in presence of [gamma33P]-ATP by HotSpot assay relative to control
Death-associated protein kinase 3 (Homo sapiens), sequence (O43293 whole entry, looked up): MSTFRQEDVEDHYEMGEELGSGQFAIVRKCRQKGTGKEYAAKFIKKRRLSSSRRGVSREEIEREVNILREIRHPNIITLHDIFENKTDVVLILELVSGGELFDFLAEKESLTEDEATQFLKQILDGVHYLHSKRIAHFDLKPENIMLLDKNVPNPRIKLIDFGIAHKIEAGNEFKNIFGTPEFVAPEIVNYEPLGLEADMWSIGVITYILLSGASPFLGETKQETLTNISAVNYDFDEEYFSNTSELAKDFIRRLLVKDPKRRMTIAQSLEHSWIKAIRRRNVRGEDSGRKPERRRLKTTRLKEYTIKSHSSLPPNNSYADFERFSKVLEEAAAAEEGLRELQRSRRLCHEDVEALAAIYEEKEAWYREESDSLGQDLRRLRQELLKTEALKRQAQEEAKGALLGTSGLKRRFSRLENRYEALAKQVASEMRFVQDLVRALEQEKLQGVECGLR

[11] = biological target: Serine/threonine-protein kinase PAK 1 (Homo sapiens) (UniProt Q13153); assay: Inhibition of human PAK1 at 1 uM using RRRLSFAEPG as substrate in presence of [gamma33P]-ATP by HotSpot assay relative to control
Serine/threonine-protein kinase PAK 1 (Homo sapiens), sequence (Q13153 whole entry): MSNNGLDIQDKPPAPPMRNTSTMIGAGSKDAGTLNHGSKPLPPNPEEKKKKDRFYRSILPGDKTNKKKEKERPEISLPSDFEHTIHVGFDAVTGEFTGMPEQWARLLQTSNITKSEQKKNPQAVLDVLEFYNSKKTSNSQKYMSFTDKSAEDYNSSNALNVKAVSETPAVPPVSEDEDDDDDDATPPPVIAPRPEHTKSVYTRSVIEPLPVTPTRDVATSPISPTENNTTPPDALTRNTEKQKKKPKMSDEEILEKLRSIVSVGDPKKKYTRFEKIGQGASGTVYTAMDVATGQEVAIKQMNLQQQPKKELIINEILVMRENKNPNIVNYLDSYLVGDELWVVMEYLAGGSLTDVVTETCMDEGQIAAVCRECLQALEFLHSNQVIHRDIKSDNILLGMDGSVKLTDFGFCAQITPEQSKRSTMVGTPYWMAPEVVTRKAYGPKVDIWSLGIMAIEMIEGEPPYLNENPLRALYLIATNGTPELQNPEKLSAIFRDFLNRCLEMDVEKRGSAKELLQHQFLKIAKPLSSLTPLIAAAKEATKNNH

[12] = biological target: Interleukin-1 receptor-associated kinase 4 (Homo sapiens) (UniProt Q9NWZ3); assay: Inhibition of human IRAK4 at 1 uM using modified-CGRTGRRNSI-NH2 as substrate in presence of [gamma33P]-ATP by HotSpot assay relative to control
[13] = biological target: Tyrosine-protein kinase Yes (Homo sapiens, UniProt P07947); assay: Inhibition of human YES1 using poly (Glu, Tyr)4:1 as substrate in presence of [gamma33P]-ATP by HotSpot assay
Tyrosine-protein kinase Yes, sequence (P07947 whole entry): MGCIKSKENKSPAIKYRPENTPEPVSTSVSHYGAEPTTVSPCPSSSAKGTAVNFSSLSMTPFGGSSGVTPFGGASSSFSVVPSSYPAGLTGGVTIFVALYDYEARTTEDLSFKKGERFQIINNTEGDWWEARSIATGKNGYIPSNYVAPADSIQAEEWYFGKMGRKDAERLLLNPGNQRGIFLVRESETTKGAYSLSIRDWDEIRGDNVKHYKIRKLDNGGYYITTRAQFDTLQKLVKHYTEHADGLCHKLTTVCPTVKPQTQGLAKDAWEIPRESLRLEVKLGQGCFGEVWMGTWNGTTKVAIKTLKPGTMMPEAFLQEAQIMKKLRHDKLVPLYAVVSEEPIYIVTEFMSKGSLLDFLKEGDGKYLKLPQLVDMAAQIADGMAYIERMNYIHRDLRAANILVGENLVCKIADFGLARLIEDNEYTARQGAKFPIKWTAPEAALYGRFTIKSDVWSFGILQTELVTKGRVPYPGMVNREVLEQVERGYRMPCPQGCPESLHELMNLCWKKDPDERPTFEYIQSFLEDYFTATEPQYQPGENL

[14] = biological target: Cyclin-dependent kinase 5/CDK5 activator 1 (Homo sapiens) (UniProt Q00535+Q15078); assay: Inhibition of human CDK5/p35 at 1 uM using RB protein as substrate in presence of [gamma33P]-ATP by HotSpot assay relative to control; assay type: protein-complex assay
[15] = biological target: Casein kinase I isoform delta (Homo sapiens) (UniProt P48730); assay: Inhibition of human CK1delta at 1 uM using KRRRAL[pS]VASLPGL as substrate in presence of [gamma33P]-ATP by HotSpot assay relative to control
[16] = biological target: G protein-coupled receptor kinase 5 (Homo sapiens) (UniProt P34947); assay: Inhibition of human GRK5 at 1 uM using casein as substrate in presence of [gamma33P]-ATP by HotSpot assay relative to control
[17] = biological target: Mitogen-activated protein kinase kinase kinase 9 (Homo sapiens, UniProt P80192); assay: Inhibition of human MAP3K9 using casein as substrate in presence of [gamma33P]-ATP by HotSpot assay
[18] = biological target: High affinity nerve growth factor receptor (Homo sapiens) (UniProt P04629); assay: Inhibition of human NTRK1 at 1 uM using poly (Glu, Tyr)4:1 as substrate in presence of [gamma33P]-ATP by HotSpot assay relative to control
[19] = biological target: Serine/threonine-protein kinase PLK2 (Homo sapiens) (UniProt Q9NYY3); assay: Inhibition of human PLK2 at 1 uM using casein as substrate in presence of [gamma33P]-ATP by HotSpot assay relative to control
[20] = tested on: Platelet-derived growth factor receptor alpha (Homo sapiens), P16234 [D842V]; assay: Inhibition of human PDGFRalpha D842V mutant at 1 uM using poly (Glu, Tyr)4:1 as substrate in presence of [gamma33P]-ATP by HotSpot assay relative to control
Platelet-derived growth factor receptor alpha (Homo sapiens), P16234 [D842V], sequence (P16234 whole entry D842V): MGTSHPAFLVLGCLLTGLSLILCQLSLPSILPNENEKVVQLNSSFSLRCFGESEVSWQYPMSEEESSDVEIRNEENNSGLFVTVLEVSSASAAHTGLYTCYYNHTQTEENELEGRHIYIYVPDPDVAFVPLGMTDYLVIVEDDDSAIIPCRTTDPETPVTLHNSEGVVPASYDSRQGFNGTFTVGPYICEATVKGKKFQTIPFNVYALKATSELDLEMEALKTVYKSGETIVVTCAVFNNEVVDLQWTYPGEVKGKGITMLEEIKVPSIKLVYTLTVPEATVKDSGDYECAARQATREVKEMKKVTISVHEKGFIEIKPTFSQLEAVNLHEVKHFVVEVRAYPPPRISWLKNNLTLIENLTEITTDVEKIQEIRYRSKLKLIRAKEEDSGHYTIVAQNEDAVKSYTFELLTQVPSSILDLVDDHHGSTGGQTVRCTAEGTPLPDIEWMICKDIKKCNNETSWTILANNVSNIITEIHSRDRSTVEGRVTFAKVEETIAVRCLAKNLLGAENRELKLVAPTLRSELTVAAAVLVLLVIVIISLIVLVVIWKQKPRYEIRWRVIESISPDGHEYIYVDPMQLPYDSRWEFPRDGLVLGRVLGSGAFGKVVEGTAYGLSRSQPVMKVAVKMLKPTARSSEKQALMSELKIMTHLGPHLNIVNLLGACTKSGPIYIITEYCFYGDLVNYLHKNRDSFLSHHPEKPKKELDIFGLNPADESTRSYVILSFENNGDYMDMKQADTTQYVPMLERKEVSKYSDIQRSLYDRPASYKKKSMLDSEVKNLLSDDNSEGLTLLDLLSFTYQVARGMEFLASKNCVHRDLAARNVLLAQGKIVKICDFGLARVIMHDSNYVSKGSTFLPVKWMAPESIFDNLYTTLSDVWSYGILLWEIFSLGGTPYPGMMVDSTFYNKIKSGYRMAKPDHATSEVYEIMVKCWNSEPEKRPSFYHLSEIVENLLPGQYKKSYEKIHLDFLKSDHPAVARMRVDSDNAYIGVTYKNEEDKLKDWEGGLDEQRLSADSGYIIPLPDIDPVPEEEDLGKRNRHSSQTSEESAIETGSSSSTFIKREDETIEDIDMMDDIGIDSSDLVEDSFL

[21] = biological target: Casein kinase II subunit alpha (Homo sapiens) (UniProt P68400); assay: Inhibition of human CK2a at 1 uM using RRRDDDSDDD as substrate in presence of [gamma33P]-ATP by HotSpot assay relative to control
Casein kinase II subunit alpha (Homo sapiens), sequence (P68400 whole entry, looked up): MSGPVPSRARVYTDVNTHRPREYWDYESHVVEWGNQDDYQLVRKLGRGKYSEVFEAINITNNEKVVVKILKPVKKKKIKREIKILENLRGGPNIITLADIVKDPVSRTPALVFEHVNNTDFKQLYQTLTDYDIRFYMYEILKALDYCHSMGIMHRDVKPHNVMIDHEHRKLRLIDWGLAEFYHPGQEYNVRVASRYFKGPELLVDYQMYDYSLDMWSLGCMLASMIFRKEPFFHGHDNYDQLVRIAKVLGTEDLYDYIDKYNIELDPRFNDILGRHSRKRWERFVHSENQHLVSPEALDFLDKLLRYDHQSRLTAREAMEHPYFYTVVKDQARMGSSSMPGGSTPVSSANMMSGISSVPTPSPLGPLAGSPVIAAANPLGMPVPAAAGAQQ

[22] = biological target: Dual specificity tyrosine-phosphorylation-regulated kinase 1B (Homo sapiens) (UniProt Q9Y463); assay: Inhibition of human DYRK1B at 1 uM using RRRFRPASPLRGPPK as substrate in presence of [gamma33P]-ATP by HotSpot assay relative to control
[23] = tested on: EML4-ALK (Homo sapiens), Q9UM73+Q9HC35 [L1196M]; settings: BaF3, time 3-5 weeks
[24] = Average plasma concentration in CB-17/SCID mouse at 50 mg/kg administered once a day for 4 days by LC-MS/MS analysis; assay type: ADME, organism-based; settings: in vivo, 96 h, time 4 day
[25] = biological target: Interleukin-1 receptor-associated kinase 1 (Homo sapiens) (UniProt P51617); assay: Inhibition of human IRAK1 at 1 uM using MBP as substrate in presence of [gamma33P]-ATP by HotSpot assay relative to control
Interleukin-1 receptor-associated kinase 1 (Homo sapiens), sequence (P51617 whole entry, looked up): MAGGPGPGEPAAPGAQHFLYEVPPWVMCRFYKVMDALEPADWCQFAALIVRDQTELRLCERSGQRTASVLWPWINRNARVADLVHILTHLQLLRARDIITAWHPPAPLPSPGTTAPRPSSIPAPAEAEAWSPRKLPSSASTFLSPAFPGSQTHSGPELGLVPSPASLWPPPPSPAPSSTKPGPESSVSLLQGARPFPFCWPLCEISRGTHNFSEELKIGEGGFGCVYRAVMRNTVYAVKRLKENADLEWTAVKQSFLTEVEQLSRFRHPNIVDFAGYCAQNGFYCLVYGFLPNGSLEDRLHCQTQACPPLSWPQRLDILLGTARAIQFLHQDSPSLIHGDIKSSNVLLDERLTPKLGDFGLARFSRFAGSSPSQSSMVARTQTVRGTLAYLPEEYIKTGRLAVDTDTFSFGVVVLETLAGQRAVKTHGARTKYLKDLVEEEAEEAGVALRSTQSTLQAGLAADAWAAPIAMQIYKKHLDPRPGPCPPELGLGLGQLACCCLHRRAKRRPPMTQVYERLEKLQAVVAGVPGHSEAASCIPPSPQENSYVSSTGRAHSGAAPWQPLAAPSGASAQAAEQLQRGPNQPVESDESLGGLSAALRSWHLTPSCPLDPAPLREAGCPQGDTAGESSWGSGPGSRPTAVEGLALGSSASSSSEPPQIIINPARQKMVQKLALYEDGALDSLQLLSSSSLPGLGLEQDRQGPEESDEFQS

With `COc1cc(N2CCC(N3CCN(C)CC3)CC2)ccc1Nc1ncc(Cl)c(Nc2ccccc2P(C)(C)=O)n1` [BRIGATINIB] the inhibition [1] was < 90%, the inhibition [2] was < 90% and the IC50 [3] was 48 nM. For the same molecule, the IC50 [4] was 5.6 nM, the IC90 [5] was 1200 nM and the inhibition [6] was < 90%. For the same molecule, the Activity (NCI-H2228) was “Active”, the inhibition [7] was < 90% and the IC50 [8] was 123 nM. For the same molecule, the IC50 (cells) was 31 nM, the inhibition [9] was “Active” and the IC50 (Insulin receptor) was 9330 nM. The inhibition [10] was < 90%, the inhibition [11] was < 90% and the inhibition [12] was < 90%. The IC50 [13] was 19 nM, the inhibition [14] was < 90% and the inhibition [15] was < 90%. The inhibition [16] was < 90%, the IC50 [17] was 218 nM and the inhibition [18] was < 90%. For the same molecule, the inhibition [19] was < 90%, the inhibition [20] was < 90% and the inhibition [21] was < 90%. For the same molecule, the inhibition [22] was < 90%, the IC90 [23] was 118 nM and the Cave [24] was 1870 nM. For the same molecule, the inhibition [25] was < 90%.
